Experimental findings from patent US20230123334A1, “AMINO LIPID COMPOUND, PREPARATION METHOD THEREFOR, AND APPLICATION THEREOF” (SHENZHEN SHENXIN BIOTECHNOLOGY CO., LTD., priority 2020, published 2023) are described below.

This assay has as its system HEK293 cells. The assay can be described thus: Preliminary screening as DNA vectors, GFP transfection of HEK293 cells. Type of assay: cell-based. Conditions: amino lipid/DOPE liposome with 75 ng plasmid DNA (psin-EGFP-IRES-Puro); number of GFP-expressing cells divided by total nuclei (Hoechst). The method, boiled down:
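First, amino lipid and DOPE were vortexed in sodium acetate buffer (pH 5.6) to form liposomes. Next, these were held with 75 ng EGFP plasmid at room temperature for 30 min. Finally, HEK293 cells were added, cultured at 37° C., Hoechst-stained, and GFP+/total nuclei scored by imaging.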
For `CCCCCCCCCNc1nc(NCCN2CCN(C)CC2)nc(SCCCCCCC)n1` [S7N9 D5], the “Absolute DNA transfection efficiency in HEK293 cells” value (shortened to “Absolute DNA transfection efficiency”) amounted to 22.0%.

`CCCCCCCCCNc1nc(NCCCN(C)C)nc(SCCCCCCC)n1` [S7N9 D6]: the “Absolute DNA transfection efficiency” value is reported as 25.9%.

With `CCCCCCCCCNc1nc(NCCN(CC)CC)nc(SCCCCCCC)n1` [S7N9 D7], the “Absolute DNA transfection efficiency” value was 33.2%.

Turning to `CCCCCCCCCNc1nc(NCCCN2CCOCC2)nc(SCCCCCCC)n1` [S7N9 D8], the “Absolute DNA transfection efficiency” value was 4.6%.

With `CCCCCCCCCNc1nc(NCCCN2CCN(C)CC2)nc(SCCCCCCC)n1` [S7N9 D9], the “Absolute DNA transfection efficiency” value worked out at 22.8%.

Turning to `CCCCCCCCCNc1nc(NCC2CCN(C)CC2)nc(SCCCCCCC)n1` [S7N9 D10], the “Absolute DNA transfection efficiency” value worked out at 15.0%.

In the case of `CCCCCCCCCCCNc1nc(NCCN(C)C)nc(SCCCCCCC)n1` [S7N11 D1], the “Absolute DNA transfection efficiency” value is recorded as 20.3%.

For the compound `CCCCCCCCCCCNc1nc(NCCN2CCOCC2)nc(SCCCCCCC)n1` [S7N11 D2], the “Absolute DNA transfection efficiency” value is 31.1%.

Regarding `CCCCCCCCCCCNc1nc(NCCN2CCCC2)nc(SCCCCCCC)n1` [S7N11 D3], the “Absolute DNA transfection efficiency” value came to 25.3%.

Regarding `CCCCCCCCCCCNc1nc(NCCN2CCCCC2)nc(SCCCCCCC)n1` [S7N11 D4], the “Absolute DNA transfection efficiency” value is 6.9%.

Take `CCCCCCCCCCCNc1nc(NCCN2CCN(C)CC2)nc(SCCCCCCC)n1` [S7N11 D5]: the “Absolute DNA transfection efficiency” value came to 43.7%.

On to `CCCCCCCCCCCNc1nc(NCCCN(C)C)nc(SCCCCCCC)n1` [S7N11 D6], for which the “Absolute DNA transfection efficiency” value is 42.1%.

With `CCCCCCCCCCCNc1nc(NCCN(CC)CC)nc(SCCCCCCC)n1` [S7N11 D7], the “Absolute DNA transfection efficiency” value came out at 9.6%.

Take `CCCCCCCCCCCNc1nc(NCCCN2CCOCC2)nc(SCCCCCCC)n1` [S7N11 D8]: the “Absolute DNA transfection efficiency” value is given as 13.9%.

As for `CCCCCCCCCCCNc1nc(NCCCN2CCN(C)CC2)nc(SCCCCCCC)n1` [S7N11 D9], the “Absolute DNA transfection efficiency” value was determined as 43.9%.

As to `CCCCCCCCCCCNc1nc(NCC2CCN(C)CC2)nc(SCCCCCCC)n1` [S7N11 D10], the “Absolute DNA transfection efficiency” value turned out to be 45.9%.

For the compound `CCCCCCCCCCCCNc1nc(NCCN(C)C)nc(SCCCCCCC)n1` [S7N12 D1], the “Absolute DNA transfection efficiency” value turned out to be 18.2%.

With `CCCCCCCCCCCCNc1nc(NCCN2CCOCC2)nc(SCCCCCCC)n1` [S7N12 D2], the “Absolute DNA transfection efficiency” value is 25.6%.

For the compound `CCCCCCCCCCCCNc1nc(NCCN2CCCC2)nc(SCCCCCCC)n1` [S7N12 D3], the “Absolute DNA transfection efficiency” value was found to be 17.4%.

For `CCCCCCCCCCCCNc1nc(NCCN2CCCCC2)nc(SCCCCCCC)n1` [S7N12 D4], the “Absolute DNA transfection efficiency” value was determined as 9.7%.

On to `CCCCCCCCCCCCNc1nc(NCCN2CCN(C)CC2)nc(SCCCCCCC)n1` [S7N12 D5], for which the “Absolute DNA transfection efficiency” value was 35.1%.

In the case of `CCCCCCCCCCCCNc1nc(NCCCN(C)C)nc(SCCCCCCC)n1` [S7N12 D6], the “Absolute DNA transfection efficiency” value came out at 54.6%.

In the case of `CCCCCCCCCCCCNc1nc(NCCN(CC)CC)nc(SCCCCCCC)n1` [S7N12 D7], the “Absolute DNA transfection efficiency” value stood at 5.5%.

As for `CCCCCCCCCCCCNc1nc(NCCCN2CCOCC2)nc(SCCCCCCC)n1` [S7N12 D8], the “Absolute DNA transfection efficiency” value worked out at 17.7%.

Regarding `CCCCCCCCCCCCNc1nc(NCCCN2CCN(C)CC2)nc(SCCCCCCC)n1` [S7N12 D9], the “Absolute DNA transfection efficiency” value is recorded as 46.4%.

Regarding `CCCCCCCCCCCCNc1nc(NCC2CCN(C)CC2)nc(SCCCCCCC)n1` [S7N12 D10], the “Absolute DNA transfection efficiency” value is 45.7%.

`CCCCCCCCCCCCCNc1nc(NCCN(C)C)nc(SCCCCCCC)n1` [S7N13 D1]: the “Absolute DNA transfection efficiency” value is reported as 11.7%.

As to `CCCCCCCCCCCCCNc1nc(NCCN2CCOCC2)nc(SCCCCCCC)n1` [S7N13 D2], the “Absolute DNA transfection efficiency” value is reported as 22.1%.

For the compound `CCCCCCCCCCCCCNc1nc(NCCN2CCCC2)nc(SCCCCCCC)n1` [S7N13 D3], the “Absolute DNA transfection efficiency” value stood at 17.9%.

In the case of `CCCCCCCCCCCCCNc1nc(NCCN2CCCCC2)nc(SCCCCCCC)n1` [S7N13 D4], the “Absolute DNA transfection efficiency” value was 6.4%.

For the compound `CCCCCCCCCCCCCNc1nc(NCCN2CCN(C)CC2)nc(SCCCCCCC)n1` [S7N13 D5], the “Absolute DNA transfection efficiency” value was found to be 23.3%.

Regarding `CCCCCCCCCCCCCNc1nc(NCCCN(C)C)nc(SCCCCCCC)n1` [S7N13 D6], the “Absolute DNA transfection efficiency” value amounted to 43.2%.

With `CCCCCCCCCCCCCNc1nc(NCCN(CC)CC)nc(SCCCCCCC)n1` [S7N13 D7], the “Absolute DNA transfection efficiency” value is 3.1%.

As for `CCCCCCCCCCCCCNc1nc(NCCCN2CCOCC2)nc(SCCCCCCC)n1` [S7N13 D8], the “Absolute DNA transfection efficiency” value is reported as 17.3%.

Regarding `CCCCCCCCCCCCCNc1nc(NCCCN2CCN(C)CC2)nc(SCCCCCCC)n1` [S7N13 D9], the “Absolute DNA transfection efficiency” value worked out at 36.9%.

For `CCCCCCCCCCCCCNc1nc(NCC2CCN(C)CC2)nc(SCCCCCCC)n1` [S7N13 D10], the “Absolute DNA transfection efficiency” value was 54.2%.

For the compound `CCCCCCCCCCCCCCCNc1nc(NCCN(C)C)nc(SCCCCCCC)n1` [S7N15 D1], the “Absolute DNA transfection efficiency” value is reported as 19.5%.

For the compound `CCCCCCCCCCCCCCCNc1nc(NCCN2CCOCC2)nc(SCCCCCCC)n1` [S7N15 D2], the “Absolute DNA transfection efficiency” value is 14.1%.

In the case of `CCCCCCCCCCCCCCCNc1nc(NCCN2CCCC2)nc(SCCCCCCC)n1` [S7N15 D3], the “Absolute DNA transfection efficiency” value worked out at 31.4%.

Consider `CCCCCCCCCCCCCCCNc1nc(NCCN2CCCCC2)nc(SCCCCCCC)n1` [S7N15 D4], for which the “Absolute DNA transfection efficiency” value is 4.9%.

For the compound `CCCCCCCCCCCCCCCNc1nc(NCCN2CCN(C)CC2)nc(SCCCCCCC)n1` [S7N15 D5], the “Absolute DNA transfection efficiency” value is 20.4%.

For `CCCCCCCCCCCCCCCNc1nc(NCCCN(C)C)nc(SCCCCCCC)n1` [S7N15 D6], the “Absolute DNA transfection efficiency” value is 15.9%.

As to `CCCCCCCCCCCCCCCNc1nc(NCCN(CC)CC)nc(SCCCCCCC)n1` [S7N15 D7], the “Absolute DNA transfection efficiency” value was determined as 7.2%.

Take `CCCCCCCCCCCCCCCNc1nc(NCCCN2CCOCC2)nc(SCCCCCCC)n1` [S7N15 D8]: the “Absolute DNA transfection efficiency” value is 7.9%.

With `CCCCCCCCCCCCCCCNc1nc(NCCCN2CCN(C)CC2)nc(SCCCCCCC)n1` [S7N15 D9], the “Absolute DNA transfection efficiency” value is reported as 17.6%.

Regarding `CCCCCCCCCCCCCCCNc1nc(NCC2CCN(C)CC2)nc(SCCCCCCC)n1` [S7N15 D10], the “Absolute DNA transfection efficiency” value was 30.9%.

For `CCCCCCCCCCCCCCCCNc1nc(NCCN(C)C)nc(SCCCCCCC)n1` [S7N16 D1], the “Absolute DNA transfection efficiency” value amounted to 20.0%.

As to `CCCCCCCCCCCCCCCCNc1nc(NCCN2CCOCC2)nc(SCCCCCCC)n1` [S7N16 D2], the “Absolute DNA transfection efficiency” value worked out at 12.9%.

Consider `CCCCCCCCCCCCCCCCNc1nc(NCCN2CCCC2)nc(SCCCCCCC)n1` [S7N16 D3], for which the “Absolute DNA transfection efficiency” value was found to be 21.2%.

`CCCCCCCCCCCCCCCCNc1nc(NCCN2CCCCC2)nc(SCCCCCCC)n1` [S7N16 D4]: the “Absolute DNA transfection efficiency” value turned out to be 2.9%.

Turning to `CCCCCCCCCCCCCCCCNc1nc(NCCN2CCN(C)CC2)nc(SCCCCCCC)n1` [S7N16 D5], the “Absolute DNA transfection efficiency” value is 18.2%.

Turning to `CCCCCCCCCCCCCCCCNc1nc(NCCCN(C)C)nc(SCCCCCCC)n1` [S7N16 D6], the “Absolute DNA transfection efficiency” value is 26.2%.

Regarding `CCCCCCCCCCCCCCCCNc1nc(NCCN(CC)CC)nc(SCCCCCCC)n1` [S7N16 D7], the “Absolute DNA transfection efficiency” value worked out at 6.4%.

Turning to `CCCCCCCCCCCCCCCCNc1nc(NCCCN2CCOCC2)nc(SCCCCCCC)n1` [S7N16 D8], the “Absolute DNA transfection efficiency” value was 8.1%.

Turning to `CCCCCCCCCCCCCCCCNc1nc(NCCCN2CCN(C)CC2)nc(SCCCCCCC)n1` [S7N16 D9], the “Absolute DNA transfection efficiency” value amounted to 12.9%.

For `CCCCCCCCCCCCCCCCNc1nc(NCC2CCN(C)CC2)nc(SCCCCCCC)n1` [S7N16 D10], the “Absolute DNA transfection efficiency” value worked out at 15.8%.

On to `CCCCCCCCCCCCCCCCCCNc1nc(NCCN(C)C)nc(SCCCCCCC)n1` [S7N18 D1], for which the “Absolute DNA transfection efficiency” value is recorded as 10.6%.

`CCCCCCCCCCCCCCCCCCNc1nc(NCCN2CCOCC2)nc(SCCCCCCC)n1` [S7N18 D2]: the “Absolute DNA transfection efficiency” value is 16.6%.

With `CCCCCCCCCCCCCCCCCCNc1nc(NCCN2CCCC2)nc(SCCCCCCC)n1` [S7N18 D3], the “Absolute DNA transfection efficiency” value worked out at 16.1%.

As to `CCCCCCCCCCCCCCCCCCNc1nc(NCCN2CCCCC2)nc(SCCCCCCC)n1` [S7N18 D4], the “Absolute DNA transfection efficiency” value came out at 3.2%.

As to `CCCCCCCCCCCCCCCCCCNc1nc(NCCN2CCN(C)CC2)nc(SCCCCCCC)n1` [S7N18 D5], the “Absolute DNA transfection efficiency” value is listed as 8.2%.

With `CCCCCCCCCCCCCCCCCCNc1nc(NCCCN(C)C)nc(SCCCCCCC)n1` [S7N18 D6], the “Absolute DNA transfection efficiency” value is 18.4%.

With `CCCCCCCCCCCCCCCCCCNc1nc(NCCN(CC)CC)nc(SCCCCCCC)n1` [S7N18 D7], the “Absolute DNA transfection efficiency” value was determined as 3.9%.

For `CCCCCCCCCCCCCCCCCCNc1nc(NCCCN2CCOCC2)nc(SCCCCCCC)n1` [S7N18 D8], the “Absolute DNA transfection efficiency” value is on record as 5.9%.

Turning to `CCCCCCCCCCCCCCCCCCNc1nc(NCCCN2CCN(C)CC2)nc(SCCCCCCC)n1` [S7N18 D9], the “Absolute DNA transfection efficiency” value is recorded as 4.2%.

In the case of `CCCCCCCCCCCCCCCCCCNc1nc(NCC2CCN(C)CC2)nc(SCCCCCCC)n1` [S7N18 D10], the “Absolute DNA transfection efficiency” value was 16.3%.

On to `CCCCCCCSc1nc(NCCN(C)C)nc(SCCCCCCC)n1` [S7S7 D1], for which the “Absolute DNA transfection efficiency” value stood at 7.9%.

Regarding `CCCCCCCSc1nc(NCCN2CCOCC2)nc(SCCCCCCC)n1` [S7S7 D2], the “Absolute DNA transfection efficiency” value is reported as 2.2%.
